In ChEMBL document CHEMBL1156105 (J Med Chem, 2009):
Activity calls are given as the source filed them. The rule behind the calls is not given here.

Assays:
[1] = system: Plasma; assay: Metabolic stability in 50% human plasma assessed as aspirin release at pH 7.4 by RP-HPLC; format: ADME, cell-free; also: time not given here
[2] = Metabolic stability in 10% human plasma assessed as half life at pH 7.4 by RP-HPLC
[3] = Metabolic stability in 50% human plasma assessed as half life at pH 7.4 by RP-HPLC
[4] = system: Plasma; assay: Metabolic stability in 10% human plasma assessed as aspirin release at pH 7.4 by RP-HPLC; format: ADME, cell-free; also: time not given here
[5] = Antiplatelets aggregatory activity in human platelets rich plasma assessed as inhibition of collagen-induced platelets aggregation by aggregometry; format: functional, cell-free; details: Platelet
[6] = system: Plasma; assay: Metabolic stability in 50% human plasma assessed as aspirin release at pH 7.4 by RP-HPLC in presence of AChE-inhibitor PMSF; format: ADME, cell-free
[7] = system: Plasma; assay: Metabolic stability in 50% human plasma assessed as half life at pH 7.4 by RP-HPLC in presence of BuChE-inhibitor isoOMPA; format: ADME, cell-free
[8] = system: Plasma; assay: Metabolic stability in 50% human plasma assessed as half life at pH 7.4 by RP-HPLC in presence of cholinesterase-inhibitor eserine; format: ADME, cell-free
[9] = system: Plasma; assay: Metabolic stability in 50% human plasma assessed as aspirin release at pH 7.4 by RP-HPLC in presence of BuChE-inhibitor dibucaine; format: ADME, cell-free
[10] = system: Plasma; assay: Metabolic stability in 50% human plasma assessed as half life at pH 7.4 by RP-HPLC in presence of AChE-inhibitor PMSF; format: ADME, cell-free
[11] = system: Plasma; assay: Metabolic stability in 50% human plasma assessed as half life at pH 7.4 by RP-HPLC in presence of BuChE-inhibitor dibucaine; format: ADME, cell-free
[12] = system: Platelet; assay: Antiplatelets aggregatory activity in human platelets rich plasma assessed as inhibition of ADP-induced platelets aggregation by aggregometry; format: functional, cell-free
[13] = system: Platelet; assay: Antiplatelets aggregatory activity in washed human platelets assessed as inhibition of ADP-induced platelets aggregation by aggregometry in presence of glutathione; format: functional, cell-based
[14] = system: Platelet; assay: Antiplatelets aggregatory activity in washed human platelets assessed as inhibition of ADP-induced platelets aggregation by aggregometry in presence of glutathione and ODQ; format: functional, cell-based
[15] = system: Platelet; assay: Antiplatelets aggregatory activity in human platelets rich plasma assessed as inhibition of ADP-induced platelets aggregation by aggregometry in presence of […] ODQ; format: functional, cell-free
[16] = system: Plasma; assay: Metabolic stability in 50% human plasma assessed as half life at pH 7.4 by RP-HPLC; format: ADME, cell-free

Structure (SMILES)	Activity [1] [%]	half-life [2] [min]	half-life [3] [min]	Activity [4] [%]	other results
CCOc1cc(OCC)cc(C(=O)O[C@@H]2CO[C@H]3[C@@H]2OC[C@@H]3OC(=O)c2ccccc2OC(C)=O)c1	< 0.5		1.7		
CC(=O)Oc1ccccc1C(=O)O[C@@H]1CO[C@H]2[C@@H]1OC[C@@H]2O[N+](=O)[O-] (racemic)		1.3			
CC(=O)Oc1ccccc1C(=O)O[C@H]1CO[C@H]2[C@@H]1OC[C@H]2OC(=O)CO[N+](=O)[O-]		3.6	0.9		
CC(=O)Oc1ccccc1C(=O)O[C@H]1CO[C@H]2[C@@H]1OC[C@H]2OC(=O)c1cc(C)nc(Cl)c1	14	1.16	1.16	24	
CC(=O)Oc1ccccc1C(=O)O[C@H]1CO[C@H]2[C@@H]1OC[C@H]2OC(=O)c1snnc1C	31	3.85	0.39	32	
CC(=O)Oc1ccccc1C(=O)O[C@H]1CO[C@H]2[C@@H]1OC[C@H]2OC(=O)c1ccc(CO[N+](=O)[O-])cc1	< 1	6	2.4	< 5	IC50 [5]: > 300 µM
CC(=O)Oc1ccccc1C(=O)O[C@H]1CO[C@H]2[C@@H]1OC[C@H]2O[N+](=O)[O-]	7.7	0.867	0.188	9.1	Activity [6]: 6.2%; t1/2 [7]: 38.3 min; t1/2 [8]: 178 min; Activity [9]: 6.75%; t1/2 [10]: 2.9 min; t1/2 [11]: 4.2 min
CC(=O)Oc1ccccc1C(=O)O [ASPIRIN]					IC50 [5]: 20.6 µM
CC(=O)Oc1ccccc1C(=O)O[C@H]1CO[C@H]2[C@@H]1OC[C@H]2OC(=O)c1ccc([N+](=O)[O-])cc1	22	2.77	1.36	13	
CC(=O)Oc1ccccc1C(=O)O[C@H]1CO[C@H]2[C@@H]1OC[C@H]2OC(=O)c1ccc(-c2ccccc2)cc1	< 0.5	> 20	> 20	< 0.5	
CC(=O)Oc1ccccc1C(=O)O[C@H]1CO[C@H]2[C@@H]1OC[C@H]2OC(=O)CCO[N+](=O)[O-]		3.9	1.3		
CC(=O)Oc1ccccc1C(=O)O[C@H]1CO[C@H]2[C@@H]1OC[C@H]2O	< 0.5	3.3	1.1	< 0.5	
CCC(=O)O[C@@H]1CO[C@H]2[C@@H]1OC[C@@H]2OC(=O)c1ccccc1OC(C)=O	7	3.65	0.66	6.8	
CC(=O)Oc1ccccc1C(=O)O[C@H]1CO[C@H]2[C@@H]1OC[C@H]2OC(=O)c1ccccc1OC(=O)c1ccccc1	19	23.1	4.33	28	
CC(=O)Oc1ccccc1C(=O)O[C@H]1CO[C@H]2[C@@H]1OC[C@H]2OC(=O)C1CC1	< 0.5	1.93	0.9	2	
CCCCC(=O)O[C@@H]1CO[C@H]2[C@@H]1OC[C@@H]2OC(=O)c1ccccc1OC(C)=O	< 0.5	1.19	0.7		
CC(=O)Oc1ccccc1C(=O)O[C@H]1CO[C@H]2[C@@H]1OC[C@H]2OC(=O)c1cccc(CO[N+](=O)[O-])c1	55	2.6	2.7	51	inhibition [13]: Active; inhibition [12]: Active; inhibition [14]: inactive; inhibition [15]: inactive; IC50 [5]: 17.1 µM

Now from value to molecule, other results behind:

Activity [1] [%]	half-life [2] [min]	half-life [3] [min]	Activity [4] [%]	Structure (SMILES)	other results
7	3.47	0.99	5	COc1ccccc1C(=O)O[C@@H]1CO[C@H]2[C@@H]1OC[C@@H]2OC(=O)c1ccccc1OC(C)=O	
59	2.1	0.83	46	CC(=O)Oc1ccccc1C(=O)O[C@H]1CO[C@H]2[C@@H]1OC[C@H]2OC(=O)c1ccccc1C	
11		3.5		CC(=O)Nc1cccc(C(=O)O[C@@H]2CO[C@H]3[C@@H]2OC[C@@H]3OC(=O)c2ccccc2OC(C)=O)c1	
< 0.5	5.33	4.08	19	CC(=O)Oc1ccccc1C(=O)O[C@H]1CO[C@H]2[C@@H]1OC[C@H]2OC(=O)c1ccc(C#N)cc1	
34	2.7	3.2	32	CC(=O)Oc1ccccc1C(=O)O[C@H]1CO[C@H]2[C@@H]1OC[C@H]2OC(=O)c1ccccc1CO[N+](=O)[O-]	IC50 [5]: 90.3 µM
17	3.85	1.93	18	CC(=O)Oc1ccccc1C(=O)O[C@H]1CO[C@H]2[C@@H]1OC[C@H]2OC(=O)c1cnccc1Cl	
14.7	6.3	2.17	16	CC(=O)Oc1ccccc1C(=O)O[C@H]1CO[C@H]2[C@@H]1OC[C@H]2OC(=O)c1ccc(C)cc1	
17	3.15	0.85	19	COc1cccc(C(=O)O[C@@H]2CO[C@H]3[C@@H]2OC[C@@H]3OC(=O)c2ccccc2OC(C)=O)c1	
54	9.9	1.22	38	CC(=O)Oc1ccccc1C(=O)O[C@H]1CO[C@H]2[C@@H]1OC[C@H]2OC(=O)c1cccc(C)c1	
29	3.3	0.64	19	CC(=O)Oc1ccccc1C(=O)O[C@H]1CO[C@H]2[C@@H]1OC[C@H]2OC(=O)c1ccccc1	
6	5.78	3.85	7	CC(=O)Oc1ccccc1C(=O)O[C@H]1CO[C@H]2[C@@H]1OC[C@H]2OC(=O)c1ccnn1C	
85	4.95	1.14	72	CC(=O)Oc1ccccc1C(=O)O[C@H]1CO[C@H]2[C@@H]1OC[C@H]2OC(=O)c1ccccc1O	inhibition [12]: Active; IC50 [5]: 20.6 µM
29	1.1	0.9	44	CC(=O)Oc1ccccc1C(=O)O[C@H]1CO[C@H]2[C@@H]1OC[C@H]2OC(=O)c1cccc(O)c1	
27	3.7	0.33	19	CC(=O)Oc1ccccc1C(=O)O[C@H]1CO[C@H]2[C@@H]1OC[C@H]2OC(=O)c1ccncc1	
32	1.39	0.37	41	CC(=O)Oc1ccccc1C(=O)O[C@H]1CO[C@H]2[C@@H]1OC[C@H]2OC(=O)c1cccnc1	
4	3.15	1.1	2.6	COc1ccc(C(=O)O[C@@H]2CO[C@H]3[C@@H]2OC[C@@H]3OC(=O)c2ccccc2OC(C)=O)cc1	
1.3	3.65	0.57	1.2	CC(=O)Oc1ccccc1C(=O)O[C@H]1CO[C@H]2[C@@H]1OC[C@H]2OC(C)=O	
0.5	1.19	1.19	1	CC(=O)Oc1ccccc1C(=O)O[C@H]1CO[C@H]2[C@@H]1OC[C@H]2OC(=O)c1ccc(O)cc1	
14	11.6		18	CC(=O)Oc1ccccc1C(=O)O[C@H]1CO[C@H]2[C@@H]1OC[C@H]2OC(=O)c1cnoc1C	t1/2 [16]: 0.06 min
